Results: US20250057808A1, “COMPOSITION COMPRISING BETA LACTAM FOR TREATING ALCOHOL DEPENDENCE AND ALCOHOL ASSOCIATED DISEASES OR CONDITIONS” (Temple University of the Commonwealth System of Higher …, priority 2023, published 2025)
“Also recorded” adds a separate entry of the source.

Experiments:
PPAR-α = experiment: Western blot PPAR-α expression in NAc-core, NAc-shell and liver; assay type: in vivo, P rats; conditions: MC-100093 50 mg/kg or ceftriaxone 200 mg/kg i.p. 5 days; among all groups
Description: (§1) We used micro-punch procedure to dissect the subregions of the NAc such as NAc-core and NAc-shell as well as the subregions of prefrontal cortex such as infralimbic (IL) and prelimbic (PL) from the brain on day 6 after the last injection day. P rats were removed from the cage and rapidly euthanized by CO2 inhalation followed by rapid decapitation with a guillotine. Brains were isolated and immediately frozen on dry ice and stored at −80° C. The stereotaxic coordinates provided by Paxinos and colleague's rat brain stereotactic atlas was used to isolate NAc-core and NAc-shell using a cryostat apparatus (−20° C.), which then kept at −80° C. for later western blot analyses.
(§2) Western Blot assay was performed to measure changes in the expression of GLT-1, xCT, mGluR1, mGluR5, PPAR-α, PPARγ, GAPDH and β-tubulin in the NAc-core and NAc-shell as described in previous publications. A lysis buffer containing protease and phosphatase inhibitors was used to generate a homogenate of liver, Nac-core, and Nac-shell samples. The amount of protein was quantified using a detergent compatible protein assay (Bio-Rad, Hercules, CA, USA) for each sample. Samples were mixed with laemmli dye and loaded with equal amounts on polyacrylamide gels (10%), which separated the proteins using electrophoresis. After that, polyvinylidene difluoride (PVDF) membranes were used to transfer the proteins electrophoretically from the gels. Membranes were incubated in 5% free-fat milk in Tris-buffered saline with Tween-20 (TBST) for 30-60 minutes at room temperature. Membranes were then incubated with appropriate primary antibodies overnight at 4° C.: rabbit anti-GLT-1 (1:5000, Abcam, ab41621), rabbit anti-xCT (1:2000, Abcam, ab175186), rabbit anti-mGluR1 (1:1000, Abcam, ab82211), rabbit anti-mGluR5 (1:1000, Abcam, ab76316), rabbit anti-PPAR-α (1:1000, Abcam, ab24509), and rabbit anti-PPARγ (1:1000, Abcam, ab209350). Mouse anti-β-tubulin (1:1000; BioLegend) was used as a loading control antibody for the brain samples and rabbit anti-GAPDH (1:5000; cell signaling) was used as a loading control antibody for the liver samples. Membranes were washed five times on the next day with TBST followed by incubation with appropriate secondary antibody (1:5000) for 90 minutes at room temperature. Chemiluminescent reagents (Super Signal West Pico, Pierce Inc.) were used to detect the proteins using a GeneSys imaging system to develop the digitized blot images. Water-control group data were represented as 100% and all other values were expressed relative to control group to detect changes in the expression of the protein of interest in the brain and liver samples.
All statistical analyses were conducted with Graphpad Prism software, with p-values of 0.05 or less being statistically significant. […]

GLT-1 [1] = conditions: cited from earlier work
[2] = Ethanol drinking paradigm, three-bottle choice (MC-100093 50 mg/kg vs ceftriaxone 200 mg/kg); assay type: in vivo, P rats
Description: P rats were received from Indiana University School of Medicine (Indianapolis, IN, USA), and were housed in a 21° C. on a 12/12 h light/dark cycle-maintained room where they had free access to water and food. All experimental procedures were approved by the Institutional Animal Care and Use Committee (IACUC) of The University of Toledo, in accordance with the guidelines governing the use of animals in research of the National Institutes of Health as described in the Guidefor the Care and Use of Laboratory Animals.
We used an ethanol drinking paradigm as described previously by Alhaddad, et al. (2014). Briefly, animals started the experimental drinking procedure at age of 90 days. The animals had five weeks of exposure to continuous three-bottle choice drinking, 0%, 15% and 30%, v/v ethanol in water, available concurrently. Daily measurement of ethanol intake was performed (g of ethanol intake/kg of body weight/day). We measured the baseline ethanol drinking by average the intake during the last three weeks. Three groups of P rats (n=8-9/group) exposed to the five weeks ethanol exposure. At week 6, rats in each group received daily intraperitoneal injection of either MC-100093 at dose of 50 mg/kg (Ethanol-MC group), Ceftriaxone at dose of 200 mg/kg (Ethanol-CEF group, which also serves as positive control), or equivolume of saline vehicle (Ethanol group) for five days. This paradigm results in pharmacologically relevant blood alcohol concentration (50-200 mg %). Following the criteria for the development of ethanol dependence, rats whose average ethanol intake <4 g/kg/day were excluded from the study. Beside the ethanol exposed groups, another group of P rats (n=8) exposed to only water and food throughout the exposure procedures (control group).
(§3) All statistical analyses were conducted with Graphpad Prism software, with p-values of 0.05 or less being statistically significant. We performed a two-way (mixed model) ANOVA followed by Bonferroni multiple comparison post-hoc test to analyze 24 h ethanol consumption, 24 h water consumption, and daily body weight. For the Western blot and oil red O staining analysis, we performed one-way ANOVA with Newman-Keuls as a post hoc multiple comparison test to measure differences between groups as a percentage (relative to control values).

GLT-1 [3] = experiment: Western blot GLT-1 expression in NAc-core, NAc-shell and liver (50 mg/kg study); assay type: in vivo, P rats; conditions: MC-100093 50 mg/kg or ceftriaxone 200 mg/kg i.p. 5 days; for Protein expression of GLT-1 in the NAc-shell: vs Ethanol group
Description: as §1, §2, §3

C[C@@H](O)[C@H]1C(=O)N[C@@H]1[C@@H](C)C(=O)N1CCN(C)CC1 [MC-100093]
Protein expression of PPAR-α in the NAc-core (PPAR-α): non-significant differences; also recorded: did not detect significant changes
Protein expression of PPAR-α in the NAc-shell (PPAR-α): non-significant differences; also recorded: did not detect significant changes
GLT-1 upregulatory properties (GLT-1 [1]): potent GLT-1 upregulator; also recorded: enhanced GLT-1 upregulatory properties compared to ceftriaxone
Body weight (grams) ([2]; MC-100093 50 mg/kg i.p. or ceftriaxone 200 mg/kg i.p. 5 days): Neither MC-100093 (50 mg/kg, i.p.) nor Ceftriaxone (200 mg/kg, i.p.) treatment has significant effect; also recorded: no significant effects
Water intake (mL/day) ([2]; MC-100093 50 mg/kg i.p. or ceftriaxone 200 mg/kg i.p. 5 days, vs Ethanol-Saline group (MC-100093: at day 5 only)): significant increase in water consumption
Ethanol consumption (g/kg of average body weight/24 hr) ([2]; P rats after 5 wk ethanol, MC-100093 50 mg/kg i.p. or ceftriaxone 200 mg/kg i.p. daily 5 days, vs Ethanol-Saline group): significant decrease in ethanol consumption from day 1 through day 5; also recorded: significantly reduced ethanol consumption from day 2 through day 5; also recorded: attenuated ethanol drinking behavior; also recorded: attenuated moderately ethanol intake as compared to ceftriaxone
Protein expression of GLT-1 in the liver (GLT-1 [3]): normalized GLT-1 level; also recorded: normalize the PPAR-α and GLT-1 levels in the liver
Protein expression of GLT-1 in the NAc-core (GLT-1 [3]; among Control, Ethanol, Ethanol-MC, Ethanol-CEF): non-significant difference; also recorded: no significant difference
Protein expression of GLT-1 in the NAc-shell (GLT-1 [3]): normalized GLT-1 and xCT levels in the NAc-shell
Protein expression of GLT-1 in the NAc-shell (GLT-1 [3]; listed as MC-100095): significantly increased
